Measurements from patent US9808003B2, “Herbicidally active 2-(substituted-phenyl)-cyclopentane-1,3-dione compounds and derivatives thereof” (Syngenta Limited, priority 2013, dated 2017).
Where “and” joins values, the source holds several entries; their conditions need not be identical. Identical values can stand only once.

Experiments:
Assay type in all cases: in vivo
[1] = system: Alopecurus myosuroides (ALOMY); experiment: Test 1A glasshouse assay, pre-emergence herbicidal activity; conditions: 312 h, 250 g/ha, 13 days after application, read-out: Pre-emergence herbicidal activity (% phytotoxicity) ALOMY
Protocol: (§1) Seeds of a variety of test species were sown in standard soil in pots. After cultivation for one day (pre-emergence) or after 8 days cultivation (post-emergence) under controlled conditions in a glasshouse (at 24/16° C., day/night; 14 hours light; 65% humidity), the plants were sprayed with an aqueous spray solution derived from the formulation of the technical active ingredient in acetone/water (50:50) solution containing 0.5% Tween 20 (polyoxyethelyene sorbitan monolaurate, CAS RN 9005-64-5). The test plants were then grown under controlled conditions in a glasshouse (at 24/16° C., day/night; 14 hours light; 65% humidity) and watered twice daily. 13 days after application of the test herbicide, for pre- and post-emergence, the test was evaluated visually for percentage phytotoxicity to the plant (where 100%=total damage to plant; 0%=no damage to plant).
(§2) Test plants: Lolium perenne (LOLPE), Alopecurus myosuroides (ALOMY), Echinochloa crus-galli (ECHCG), and Avena fatua (AVEFA); these are all grassy monocotyledonous weeds.

Avena fatua (AVEFA) [2] = experiment: as above; conditions: 312 h, 250 g/ha, 13 days after application, read-out: Pre-emergence herbicidal activity (% phytotoxicity) AVEFA
Protocol: as §1, §2

[3] = system: Spring Barley “Harrington”; experiment: Test 1B glasshouse assay, post-emergence herbicidal activity against cereal crops; conditions: for Post-emergence herbicidal activity against cereal crops, percentage phytotoxicity, Spring Barley “Harrington”: 14 DAA
Method in brief: (§3)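 Technical compound in IF50 with acetone, diluted into 0.5% v/v Adigor, sprayed post-emergence on 14-day glasshouse plants (22/16 °C, 16 h light, 65% humidity), typically at 60, 90 or 120 g/ha, with or without 50 g/ha cloquintocet-mexyl safener. Phytotoxicity scored visually 14 DAA (0–100%), mean of two replicates.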

Winter Barley “Suzuka” = experiment: as above; conditions: for Post-emergence herbicidal activity against cereal crops, percentage phytotoxicity, Winter Barley “Suzuka”: 14 DAA
Method in brief: as §3

Winter Wheat “Hereward” = experiment: as above; conditions: for Post-emergence herbicidal activity against cereal crops, percentage phytotoxicity, Winter Wheat “Hereward”: 14 DAA
Method in brief: as §3

Spring Wheat “Freya” = experiment: as above
[4] = system: Alopecurus myosuroides (ALOMY); experiment: Test 1B glasshouse assay, post-emergence herbicidal activity against grassy weeds; conditions: 14 DAA
Method in brief: (§4)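 Percent phytotoxicity (0–100%, 1% steps) was scored visually 14 days after spraying, as the mean of duplicates. Plants grown 14 days under glasshouse control received the herbicide post-emergence, typically 60–120 g/ha with or without 50 g/ha cloquintocet-mexyl safener, in spray containing 0.5% v/v Adigor.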

Setaria viridis (SETVI) = experiment: as above; conditions: 14 DAA
Method in brief: as §4

Avena fatua (AVEFA) [5] = experiment: as above; conditions: 14 DAA
Method in brief: as §4

Poa annua (POAAN) = experiment: as above; conditions: 14 DAA
Method in brief: as §4

[6] = system: Lolium multiflorum (LOLMU); experiment: as above; conditions: 14 DAA
Method in brief: as §4

[7] = 30 g/ha herbicide, 50 g/ha cloquintocet-mexyl
[8] = 45 g/ha herbicide, 50 g/ha cloquintocet-mexyl
[9] = 60 g/ha herbicide, 0 g/ha cloquintocet-mexyl
[10] = 60 g/ha herbicide, 50 g/ha cloquintocet-mexyl
[11] = herbicide 30 g/ha, cloquintocet-mexyl 50 g/ha
[12] = herbicide 60 g/ha, cloquintocet-mexyl 0 g/ha
[13] = herbicide 60 g/ha, cloquintocet-mexyl 50 g/ha
[14] = herbicide 45 g/ha, cloquintocet-mexyl 50 g/ha

Cc1cc(C)c(C2C(=O)CC(CCNC(=O)c3cccc(F)n3)C2=O)c(C)c1 (racemic) [Compound A89]
inhibition at 250 g/ha [1]: 100%
inhibition at 250 g/ha (Avena fatua (AVEFA) [2]): 100%
Post-emergence herbicidal activity against cereal crops, percentage phytotoxicity, Spring Barley “Harrington” [3, 7]: 13%
Post-emergence herbicidal activity against cereal crops, percentage phytotoxicity, Spring Barley “Harrington” [3, 8]: 55%
Post-emergence herbicidal activity against cereal crops, percentage phytotoxicity, Spring Barley “Harrington” [3, 9]: 95%
Post-emergence herbicidal activity against cereal crops, percentage phytotoxicity, Spring Barley “Harrington” [3, 10]: 85%
Percentage Phytotoxicity Spring Barley “Harrington” [3, 11]: 13%
Percentage Phytotoxicity Spring Barley “Harrington” [3, 12]: 88%
Percentage Phytotoxicity Spring Barley “Harrington” [3, 13]: 43%
Post-emergence herbicidal activity against cereal crops, percentage phytotoxicity, Winter Barley “Suzuka” (Winter Barley “Suzuka”; [7]): 8%
Post-emergence herbicidal activity against cereal crops, percentage phytotoxicity, Winter Barley “Suzuka” (Winter Barley “Suzuka”; [8]): 20%
Post-emergence herbicidal activity against cereal crops, percentage phytotoxicity, Winter Barley “Suzuka” (Winter Barley “Suzuka”; [9]): 95%
Post-emergence herbicidal activity against cereal crops, percentage phytotoxicity, Winter Barley “Suzuka” (Winter Barley “Suzuka”; [10]): 73%
Percentage Phytotoxicity Winter Barley “Suzuka” (Winter Barley “Suzuka”; [11]): 8%
Percentage Phytotoxicity Winter Barley “Suzuka” (Winter Barley “Suzuka”; [12]): 90%
Percentage Phytotoxicity Winter Barley “Suzuka” (Winter Barley “Suzuka”; [13]): 25%
Post-emergence herbicidal activity against cereal crops, percentage phytotoxicity, Winter Wheat “Hereward” (Winter Wheat “Hereward”; [7]): 15%
Post-emergence herbicidal activity against cereal crops, percentage phytotoxicity, Winter Wheat “Hereward” (Winter Wheat “Hereward”; [8]): 25%
Post-emergence herbicidal activity against cereal crops, percentage phytotoxicity, Winter Wheat “Hereward” (Winter Wheat “Hereward”; [9]): 60%
Post-emergence herbicidal activity against cereal crops, percentage phytotoxicity, Winter Wheat “Hereward” (Winter Wheat “Hereward”; [10]): 28%
Percentage Phytotoxicity Winter Wheat “Hereward” (Winter Wheat “Hereward”; [11]): 10%
Percentage Phytotoxicity Winter Wheat “Hereward” (Winter Wheat “Hereward”; [12]): 75%
Percentage Phytotoxicity Winter Wheat “Hereward” (Winter Wheat “Hereward”; [13]): 25%
Percentage Phytotoxicity Spring Wheat “Freya” (Spring Wheat “Freya”; [11]): 13%
Percentage Phytotoxicity Spring Wheat “Freya” (Spring Wheat “Freya”; [12]): 70%
Percentage Phytotoxicity Spring Wheat “Freya” (Spring Wheat “Freya”; [13]): 38%
Post-emergence herbicidal activity, percentage phytotoxicity, ALOMY [4, 7]: 88% and 80%
Post-emergence herbicidal activity, percentage phytotoxicity, ALOMY [4, 8]: 97%
Post-emergence herbicidal activity, percentage phytotoxicity, ALOMY [4, 9]: 98% and 99%
Post-emergence herbicidal activity, percentage phytotoxicity, ALOMY [4, 10]: 98%
Post-emergence herbicidal activity, percentage phytotoxicity, SETVI (Setaria viridis (SETVI); [7]): 100% and 95%
Post-emergence herbicidal activity, percentage phytotoxicity, SETVI (Setaria viridis (SETVI); [8]): 100%
Post-emergence herbicidal activity, percentage phytotoxicity, SETVI (Setaria viridis (SETVI); [9]): 100% and 99%
Post-emergence herbicidal activity, percentage phytotoxicity, SETVI (Setaria viridis (SETVI); [10]): 100%
Post-emergence herbicidal activity, percentage phytotoxicity, AVEFA (Avena fatua (AVEFA) [5]; [7]): 83% and 85%
Post-emergence herbicidal activity, percentage phytotoxicity, AVEFA (Avena fatua (AVEFA) [5]; [8]): 85%
Post-emergence herbicidal activity, percentage phytotoxicity, AVEFA (Avena fatua (AVEFA) [5]; [9]): 90% and 97%
Post-emergence herbicidal activity, percentage phytotoxicity, AVEFA (Avena fatua (AVEFA) [5]; [10]): 90% and 93%
Post-emergence herbicidal activity, percentage phytotoxicity, POAAN (Poa annua (POAAN); [7]): 0%
Post-emergence herbicidal activity, percentage phytotoxicity, POAAN (Poa annua (POAAN); [8]): 3%
Post-emergence herbicidal activity, percentage phytotoxicity, POAAN (Poa annua (POAAN); [9]): 25% and 15%
Post-emergence herbicidal activity, percentage phytotoxicity, LOLMU [6, 7]: 90% and 93%
Post-emergence herbicidal activity, percentage phytotoxicity, LOLMU [6, 8]: 99%
Post-emergence herbicidal activity, percentage phytotoxicity, LOLMU [6, 9]: 100%
Post-emergence herbicidal activity, percentage phytotoxicity, LOLMU [6, 10]: 100% and 95%

Cc1cc(C)c(C2C(=O)CC(CCNC(=O)c3ccc(Br)cn3)C2=O)c(C)c1 (racemic) [Compound A120, 5-bromo-N-{2-[2,4-dioxo-3-(2,4,6-trimethylphenyl)cyclopentyl]ethyl}pyridine-2-carboxamide]
inhibition at 250 g/ha [1]: 90%
inhibition at 250 g/ha (Avena fatua (AVEFA) [2]): 70%
Percentage Phytotoxicity Spring Barley “Harrington” [3, 11]: 25%
Percentage Phytotoxicity Spring Barley “Harrington” [3, 14]: 38%
Percentage Phytotoxicity Spring Barley “Harrington” [3, 12]: 78%
Percentage Phytotoxicity Spring Barley “Harrington” [3, 13]: 38%
Percentage Phytotoxicity Winter Barley “Suzuka” (Winter Barley “Suzuka”; [11]): 15%
Percentage Phytotoxicity Winter Barley “Suzuka” (Winter Barley “Suzuka”; [14]): 40%
Percentage Phytotoxicity Winter Barley “Suzuka” (Winter Barley “Suzuka”; [12]): 88%
Percentage Phytotoxicity Winter Barley “Suzuka” (Winter Barley “Suzuka”; [13]): 40%
Percentage Phytotoxicity Winter Wheat “Hereward” (Winter Wheat “Hereward”; [11]): 38%
Percentage Phytotoxicity Winter Wheat “Hereward” (Winter Wheat “Hereward”; [14]): 50%
Percentage Phytotoxicity Winter Wheat “Hereward” (Winter Wheat “Hereward”; [12]): 68%
Percentage Phytotoxicity Winter Wheat “Hereward” (Winter Wheat “Hereward”; [13]): 50%
Percentage Phytotoxicity Spring Wheat “Freya” (Spring Wheat “Freya”; [11]): 18%
Percentage Phytotoxicity Spring Wheat “Freya” (Spring Wheat “Freya”; [14]): 30%
Percentage Phytotoxicity Spring Wheat “Freya” (Spring Wheat “Freya”; [12]): 55%
Percentage Phytotoxicity Spring Wheat “Freya” (Spring Wheat “Freya”; [13]): 30%
Post-emergence herbicidal activity, percentage phytotoxicity, ALOMY [4, 7]: 75%
Post-emergence herbicidal activity, percentage phytotoxicity, ALOMY [4, 8]: 80%
Post-emergence herbicidal activity, percentage phytotoxicity, ALOMY [4, 9]: 85%
Post-emergence herbicidal activity, percentage phytotoxicity, ALOMY [4, 10]: 80%
Post-emergence herbicidal activity, percentage phytotoxicity, SETVI (Setaria viridis (SETVI); [7]): 100%
Post-emergence herbicidal activity, percentage phytotoxicity, SETVI (Setaria viridis (SETVI); [8]): 100%
Post-emergence herbicidal activity, percentage phytotoxicity, SETVI (Setaria viridis (SETVI); [9]): 100%
Post-emergence herbicidal activity, percentage phytotoxicity, SETVI (Setaria viridis (SETVI); [10]): 100%
Post-emergence herbicidal activity, percentage phytotoxicity, AVEFA (Avena fatua (AVEFA) [5]; [7]): 75%
Post-emergence herbicidal activity, percentage phytotoxicity, AVEFA (Avena fatua (AVEFA) [5]; [8]): 78%
Post-emergence herbicidal activity, percentage phytotoxicity, AVEFA (Avena fatua (AVEFA) [5]; [9]): 85%
Post-emergence herbicidal activity, percentage phytotoxicity, AVEFA (Avena fatua (AVEFA) [5]; [10]): 78%
Post-emergence herbicidal activity, percentage phytotoxicity, POAAN (Poa annua (POAAN); [7]): 3%
Post-emergence herbicidal activity, percentage phytotoxicity, POAAN (Poa annua (POAAN); [8]): 3%
Post-emergence herbicidal activity, percentage phytotoxicity, POAAN (Poa annua (POAAN); [9]): 10%
Post-emergence herbicidal activity, percentage phytotoxicity, POAAN (Poa annua (POAAN); [10]): 3%
Post-emergence herbicidal activity, percentage phytotoxicity, LOLMU [6, 7]: 98%
Post-emergence herbicidal activity, percentage phytotoxicity, LOLMU [6, 8]: 99%
Post-emergence herbicidal activity, percentage phytotoxicity, LOLMU [6, 9]: 100%
Post-emergence herbicidal activity, percentage phytotoxicity, LOLMU [6, 10]: 99%
